Results taken from ChEMBL document CHEMBL3885861, “Open TG-GATES”.

Species: Rattus norvegicus
Experiment: Open TG-GATES - Regimen: Single
Format: toxicity, organism-based, Sprague-Dawley
Parameters: regimen Single, gender Male, age 6 weeks
Details: in vivo, iv, route intravenous injection; for LIVER: tissue Liver; for A/G / ALP / ALT / AST / BUN / CRE / Ca / Cl / DBIL / GLC / IP / K / LDH / Na / PL / RALB / TBIL / TC / TG / TP / gamma-GTP: tissue Plasma; for APTT / Bas / Eos / Fbg / Hb / Ht / Lym / MCH / MCHC / MCV / Mono / Neu / PT / Plat / RBC / Ret / WBC: tissue Blood; for KIDNEY_L / KIDNEY_R / KIDNEY_TOTAL: tissue Kidney
[1] = 2 mg/kg, 3 h, dose level Middle
[2] = 2 mg/kg, 6 h, dose level Middle

C[C@@H]1[C@H](O)[C@@H](C)/C=C/C=C/C=C/C=C/C=C/C=C/C=C/[C@H](O[C@@H]2O[C@H](C)[C@@H](O)[C@H](N)[C@@H]2O)C[C@@H]2O[C@](O)(C[C@@H](O)C[C@@H](O)[C@H](O)CC[C@@H](O)C[C@@H](O)CC(=O)O[C@H]1C)C[C@H](O)[C@H]2C(=O)O [AMPHOTERICIN B]
LIVER (1 mg/kg, 9 h, dose level Low): 8.4 g | A/G (1 mg/kg, 9 h, dose level Low): 0.8 | ALP (1 mg/kg, 9 h, dose level Low): 1344.2 IU/L | ALT (1 mg/kg, 9 h, dose level Low): 33 IU/L | AST (1 mg/kg, 9 h, dose level Low): 85 IU/L | BUN (1 mg/kg, 9 h, dose level Low): 16.6 mg/dL | CRE (1 mg/kg, 9 h, dose level Low): 0.1 mg/dL | Ca (1 mg/kg, 9 h, dose level Low): 10.6 mg/dL | Cl (1 mg/kg, 9 h, dose level Low): 106.6 meq/L | DBIL (1 mg/kg, 9 h, dose level Low): 0.012 mg/dL | GLC (1 mg/kg, 9 h, dose level Low): 161.4 mg/dL | IP (1 mg/kg, 9 h, dose level Low): 10.2 mg/dL | K (1 mg/kg, 9 h, dose level Low): 3.8 meq/L | LDH (1 mg/kg, 9 h, dose level Low): 53.6 IU/L | Na (1 mg/kg, 9 h, dose level Low): 142.8 meq/L | PL (1 mg/kg, 9 h, dose level Low): 122.8 mg/dL | RALB (1 mg/kg, 9 h, dose level Low): 2.5 g/dL | TBIL (1 mg/kg, 9 h, dose level Low): 0.07 mg/dL | TC (1 mg/kg, 9 h, dose level Low): 75.8 mg/dL | TG (1 mg/kg, 9 h, dose level Low): 31.4 mg/dL | TP (1 mg/kg, 9 h, dose level Low): 5.6 g/dL | gamma-GTP (1 mg/kg, 9 h, dose level Low): 1.6 IU/L | TERMINAL_BW (1 mg/kg, 24 h, dose level Low): 224.5 g | APTT (1 mg/kg, 24 h, dose level Low): 14.8 s | Bas (1 mg/kg, 24 h, dose level Low): 0% | Eos (1 mg/kg, 24 h, dose level Low): 1% | Fbg (1 mg/kg, 24 h, dose level Low): 286.6 mg/dL | Hb (1 mg/kg, 24 h, dose level Low): 13.3 g/dL | Ht (1 mg/kg, 24 h, dose level Low): 39.7% | Lym (1 mg/kg, 24 h, dose level Low): 79.8% | MCH (1 mg/kg, 24 h, dose level Low): 21.2 pg | MCHC (1 mg/kg, 24 h, dose level Low): 33.6% | MCV (1 mg/kg, 24 h, dose level Low): 63.1 fL | Mono (1 mg/kg, 24 h, dose level Low): 2.2% | Neu (1 mg/kg, 24 h, dose level Low): 16.6% | PT (1 mg/kg, 24 h, dose level Low): 12 s | Plat (1 mg/kg, 24 h, dose level Low): 135.9 x10_4/uL | RBC (1 mg/kg, 24 h, dose level Low): 628.6 x10_4/ul | Ret (1 mg/kg, 24 h, dose level Low): 7.1% | WBC (1 mg/kg, 24 h, dose level Low): 100.8 x10_2/uL | KIDNEY_L (1 mg/kg, 24 h, dose level Low): 1 g | KIDNEY_R (1 mg/kg, 24 h, dose level Low): 1 g | KIDNEY_TOTAL (1 mg/kg, 24 h, dose level Low): 1.9 g | LIVER (1 mg/kg, 24 h, dose level Low): 10.5 g | A/G (1 mg/kg, 24 h, dose level Low): 0.8 | ALP (1 mg/kg, 24 h, dose level Low): 1710.6 IU/L | ALT (1 mg/kg, 24 h, dose level Low): 39.8 IU/L | AST (1 mg/kg, 24 h, dose level Low): 67.8 IU/L | BUN (1 mg/kg, 24 h, dose level Low): 17.2 mg/dL | CRE (1 mg/kg, 24 h, dose level Low): 0.2 mg/dL | Ca (1 mg/kg, 24 h, dose level Low): 11 mg/dL | Cl (1 mg/kg, 24 h, dose level Low): 105.6 meq/L | DBIL (1 mg/kg, 24 h, dose level Low): 0.02 mg/dL | GLC (1 mg/kg, 24 h, dose level Low): 161.8 mg/dL | IP (1 mg/kg, 24 h, dose level Low): 8.2 mg/dL | K (1 mg/kg, 24 h, dose level Low): 3.9 meq/L | LDH (1 mg/kg, 24 h, dose level Low): 50.4 IU/L | Na (1 mg/kg, 24 h, dose level Low): 144 meq/L | PL (1 mg/kg, 24 h, dose level Low): 143.8 mg/dL | RALB (1 mg/kg, 24 h, dose level Low): 2.7 g/dL | TBIL (1 mg/kg, 24 h, dose level Low): 0.056 mg/dL | TC (1 mg/kg, 24 h, dose level Low): 79.4 mg/dL | TG (1 mg/kg, 24 h, dose level Low): 92.2 mg/dL | TP (1 mg/kg, 24 h, dose level Low): 5.8 g/dL | gamma-GTP (1 mg/kg, 24 h, dose level Low): 1.8 IU/L | TERMINAL_BW [1]: 220.8 g | APTT [1]: 17.1 s | Bas [1]: 0% | Eos [1]: 1% | Fbg [1]: 283 mg/dL | Hb [1]: 13.7 g/dL | Ht [1]: 38.4% | Lym [1]: 69% | MCH [1]: 20.9 pg | MCHC [1]: 35.8% | MCV [1]: 58.4 fL | Mono [1]: 4% | Neu [1]: 25% | PT [1]: 12.6 s | Plat [1]: 117.6 x10_4/uL | RBC [1]: 657 x10_4/ul | Ret [1]: 6.8% | WBC [1]: 144 x10_2/uL | KIDNEY_L [1]: 1 g | KIDNEY_R [1]: 0.9 g | KIDNEY_TOTAL [1]: 1.9 g | LIVER [1]: 10.3 g | A/G [1]: 0.8 | ALP [1]: 1456 IU/L | ALT [1]: 41 IU/L | AST [1]: 72 IU/L | BUN [1]: 31 mg/dL | CRE [1]: 0.2 mg/dL | Ca [1]: 11 mg/dL | Cl [1]: 106 meq/L | DBIL [1]: 0.01 mg/dL | GLC [1]: 186 mg/dL | IP [1]: 10.5 mg/dL | K [1]: 4.4 meq/L | LDH [1]: 71 IU/L | Na [1]: 141 meq/L | PL [1]: 134 mg/dL | RALB [1]: 2.5 g/dL | TBIL [1]: 0.07 mg/dL | TC [1]: 78 mg/dL | TG [1]: 41 mg/dL | TP [1]: 5.5 g/dL | gamma-GTP [1]: 2 IU/L | TERMINAL_BW [2]: 211.7 g | APTT [2]: 15.8 s | Bas [2]: 0.2% | Eos [2]: 0% | Fbg [2]: 236 mg/dL | Hb [2]: 14.3 g/dL | Ht [2]: 41.1% | Lym [2]: 54.8% | MCH [2]: 21.2 pg | MCHC [2]: 35% | MCV [2]: 60.7 fL | Mono [2]: 3.2% | Neu [2]: 40.8% | PT [2]: 12.8 s | Plat [2]: 138.8 x10_4/uL | RBC [2]: 676.8 x10_4/ul | Ret [2]: 8.1% | WBC [2]: 102.6 x10_2/uL | KIDNEY_L [2]: 1 g | KIDNEY_R [2]: 1 g | KIDNEY_TOTAL [2]: 2.1 g | LIVER [2]: 9.1 g | A/G [2]: 0.9 | ALP [2]: 1566.8 IU/L | ALT [2]: 197 IU/L | AST [2]: 407 IU/L | BUN [2]: 43.8 mg/dL | CRE [2]: 0.4 mg/dL | Ca [2]: 11 mg/dL | Cl [2]: 107 meq/L | DBIL [2]: 0.0175 mg/dL | GLC [2]: 196.8 mg/dL
